# Measurements: patent US10781201B2, “Benzimidazole derivative having JNK inhibitory activity and use thereof” (INDUSTRY-UNIVERSITY COOPERATION FOUNDATION HANYANG …, priority 2017, dated 2020)
# Key:
# human JNK3 enzyme = human JNK3 enzyme (Homo sapiens, UniProt P53779); assay: Measurement of JNK3 enzymatic activity (33P-ATP filter-binding method); assay type: biochemical; settings: ATP 10 μM, ATF2 3 μM
# Protocol: First, a substrate was added to a prepared base reaction buffer solution (20 mM Hepes (pH 7.5), 10 mM MgCl2, 1 mM EGTA, 0.02% Brij35, 0.02 mg/ml BSA, 0.1 mM Na3VO4, 2 mM DTT, 1% DMSO), a human JNK3 enzyme was added into the prepared substrate solution, and the resulting solution was mixed. ATP (10 μM) and ATF2 (3 μM) were used as substrates, and among them, ATP was used as a common substrate. Next, the compound according to the present invention dissolved in 100% DMSO was added to an enzyme reaction solution, and incubated at room temperature for 20 minutes. Subsequently, ^33P-ATP was added to the mixed reaction solution to initiate the reaction, followed by incubation at room temperature for 2 hours, and enzymatic activity was detected by a filter-binding method. Specifically, 25 al per resulting solution was slowly spotted on P81 paper and placed in a scintillation vial, and then the paper was washed four times with 0.75% phosphoric acid for 10 minutes each and washed once with acetone for 5 minutes. 5 ml of a scintillation cocktail was added to the scintillation vial and signals were read using a scintillation counter.
# [1] = tested on: Alzheimer's disease transgenic mice; assay: Reducing concentration of APP and beta-amyloid oligomer in brain tissue, western blotting; assay type: in vivo; settings: IV 15 mg/kg/day three times per 1 week for a total of 2 weeks, compared to non-treated 2×TG(veh)
# Excerpt: JNK3 is known to phosphorylate and activate amyloid precursor protein (APP), which is the main cause of Alzheimer's disease, to thus allow the APP to be located in a cell membrane, and promotes the conversion of APP to beta-amyloid, and it has been reported that, even in a case in which, after beta-amyloid is formed, the apoptosis of neurons is induced by toxicity thereof, the activation of JNK3 acts as a main cause. Based on these facts, in the present experimental example, the derivative of the present invention (compound 35d) was administered via intravenous injection (IV) to Alzheimer's disease transgenic mice in a dose of 15 mg/kg/day three times per 1 week for a total of 2 weeks, and then changes in the concentration of APP and beta-amyloid oligomer in the frontal lobe cortex were confirmed through western blotting. Meanwhile, normal mice (WT(veh)) were used as a control, and non-treated Alzheimer's disease transgenic mice (2×TG(veh)) were used as a comparative group.
# P-gp (MDR1) = assay: Evaluation of migration of blood-brain barrier (BBB migration evaluation system); assay type: in vitro ADME; settings: human, Caco-2-MDR1 cells; for Papp A→B: apical to basolateral, read-out: A to B (permeability coefficient Papp); for Papp B→A: basolateral to apical, read-out: B to A (permeability coefficient Papp)
# Excerpt: (§1) The blood-brain barrier (BBB) functions as a primary barrier to prevent the invasion of foreign substances, but acts as an obstacle to treatment in pathological circumstances. That is, therapeutics for the treatment of brain diseases or maintaining the condition thereof are very unlikely to permeate the blood-brain barrier, and thus are unable to be effectively used, and accordingly, the selection of drugs for the treatment of brain diseases is limited. […] […] amount of material permeating into mebrain, A: area, and C0: initial concentration of material)
# [2] = tested on: P-gp(MDR1)-overexpressing Caco-2-MDR1 cells; assay: as above; assay type: in vitro ADME; settings: class in words
# Excerpt: as §1
# human JNK3 enzyme, sequence (P53779 whole entry): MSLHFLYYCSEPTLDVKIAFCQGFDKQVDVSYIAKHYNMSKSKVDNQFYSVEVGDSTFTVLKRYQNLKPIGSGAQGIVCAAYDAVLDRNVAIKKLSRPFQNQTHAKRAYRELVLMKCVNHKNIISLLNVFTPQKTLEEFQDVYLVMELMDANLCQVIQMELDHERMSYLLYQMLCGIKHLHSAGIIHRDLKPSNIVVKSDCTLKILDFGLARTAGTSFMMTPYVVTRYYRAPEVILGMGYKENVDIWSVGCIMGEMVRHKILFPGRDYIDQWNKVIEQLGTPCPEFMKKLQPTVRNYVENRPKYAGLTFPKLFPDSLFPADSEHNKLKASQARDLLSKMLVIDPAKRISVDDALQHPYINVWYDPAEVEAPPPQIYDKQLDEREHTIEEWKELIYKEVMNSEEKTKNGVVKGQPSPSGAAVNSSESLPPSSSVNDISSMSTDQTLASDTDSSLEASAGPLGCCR
IC50 (human JNK3 enzyme; Table 3) [nM],IC50 (human JNK3 enzyme; Table 2) [nM],IC50 (human JNK3 enzyme; Table 1) [nM],SMILES,other results
< 30,–,–,"O=C(C1CC1)N1CCC[C@@H](Nc2nccc(-n3c(-c4ccc5c(c4)OCCO5)nc4cc(O)c(O)cc43)n2)C1 [Compound 35d, (R)-cyclopropyl(3-(4-(2-(2,3-dihydrobenzo[b][1,4]dioxin-6-yl)-5,6-dihydroxy-1H-benzo[d]imidazole-1-yl)pyrimidin-2-ylamino)piperidine-1-yl)methanone]",concentration of beta-amyloid oligomer in the frontal lobe cortex [1]: significantly reduced; expression level of APP in the frontal lobe cortex [1]: significantly reduced; efflux ratio (P-gp (MDR1)): 1.13; Papp A→B (P-gp (MDR1)): 17.3 ×10⁻⁶ cm/s; Papp B→A (P-gp (MDR1)): 19.6 ×10⁻⁶ cm/s; Permeability [2]: High
–,30 to 100,–,"O=C(C1CC1)N1CCC[C@H](Nc2nccc(-n3c(-c4ccc5c(c4)OCCO5)nc4ccc(O)cc43)n2)C1 [Compound 26c, (S)-cyclopropyl(3-((4-(2-(2,3-dihydrobenzo[b][1,4]dioxin-6-yl)-6-hydroxy-1H-benzo[d]imidazole-1-yl)pyrimidin-2-yl)amino)piperidine-1-yl)methanone]",efflux ratio (P-gp (MDR1)): 1.03; Papp A→B (P-gp (MDR1)): 19.2 ×10⁻⁶ cm/s; Papp B→A (P-gp (MDR1)): 19.9 ×10⁻⁶ cm/s; Permeability [2]: High
< 30,–,–,"O=C(C1CC1)N1CCC[C@@H](Nc2nccc(-n3c(-c4ccc5ccccc5c4)nc4cc(O)c(O)cc43)n2)C1 [Compound 35a, (R)-cyclopropyl(3-(4-(5,6-dihydroxy-2-(naphthalene-2-yl)-1H-benzo[d]imidazole-1-yl)pyrimidin-2-ylamino)piperidine-1-yl)methanone]",–
–,–,30 to 100,"O=C(C1CC1)N1CCC[C@H](Nc2nccc(-n3c(-c4ccc5c(c4)OCCO5)nc4cc(O)ccc43)n2)C1 [Compound 13c, (S)-cyclopropyl(3-((4-(2-(2,3-dihydrobenzo[b][1,4]dioxin-6-yl)-5-hydroxy-1H-benzo[d]imidazole-1-yl)pyrimidin-2-yl)amino)piperidine-1-yl)methanone]",–
–,30 to 100,–,"O=C(C1CC1)N1CCC[C@H](Nc2nccc(-n3c(-c4ccc(F)c(C(F)(F)F)c4)nc4ccc(O)cc43)n2)C1 [Compound 26f, (S)-cyclopropyl(3-((4-(2-(4-fluoro-3-(trifluoromethyl)phenyl)-6-hydroxy-1H-benzo[d]imidazole-1-yl)pyrimidin-2-yl)amino)piperidine-1-yl)methanone]",–
< 30,–,–,"O=C(C1CC1)N1CCC[C@@H](Nc2nccc(-n3c(-c4ccc5occc5c4)nc4cc(O)c(O)cc43)n2)C1 [Compound 35e, (R)-(3-(4-(2-(benzofuran-5-yl)-5,6-dihydroxy-1H-benzo[d]imidazole-1-yl)pyrimidin-2-ylamino)piperidine-1-yl)(cyclopropyl)methanone]",–
–,–,> 100,"Oc1ccc2c(c1)nc(-c1ccc3ccccc3c1)n2-c1ccnc(NC2CCCCC2)n1 [Compound 10a, 1-(2-(cyclohexylamino)pyrimidin-4-yl)-2-(naphthalene-2-yl)-1H-benzo[d]imidazole-5-ol]",–
–,30 to 100,–,"Oc1ccc2nc(-c3ccc4occc4c3)n(-c3ccnc(NC4CCOCC4)n3)c2c1 [Compound 22d, 2-(benzofuran-5-yl)-1-(2-((tetrahydro-2H-pyran-4-yl)amino)pyrimidin-4-yl)-1H-benzo[d]imidazole-6-ol]",–
–,–,> 100,"Oc1ccc2c(c1)nc(-c1ccc3ccccc3c1)n2-c1ccnc(NC2CCOCC2)n1 [Compound 9a, 2-(naphthalene-2-yl)-1-(2-((tetrahydro-2H-pyran-4-yl)amino)pyrimidin-4-yl)-1H-benzo[d]imidazole-5-ol]",–
< 30,–,–,"O=C(C1CC1)N1CCC[C@@H](Nc2nccc(-n3c(-c4ccc(Cl)c(Cl)c4)nc4cc(O)c(O)cc43)n2)C1 [Compound 35b, (R)-cyclopropyl(3-(4-(2-(3,4-dichlorophenyl)-5,6-dihydroxy-1H-benzo[d]imidazole-1-yl)pyrimidin-2-ylamino)piperidine-1-yl)methanone]",–
–,–,30 to 100,"O=C(C1CC1)N1CCC[C@H](Nc2nccc(-n3c(-c4ccc(F)c(C(F)(F)F)c4)nc4cc(O)ccc43)n2)C1 [Compound 13f, (S)-cyclopropyl(3-((4-(2-(4-fluoro-3-(trifluoromethyl)phenyl)-5-hydroxy-1H-benzo[d]imidazole-1-yl)pyrimidin-2-yl)amino)piperidine-1-yl)methanone]",–
–,30 to 100,–,"Oc1ccc2nc(-c3ccc4ccccc4n3)n(-c3ccnc(NC4CCOCC4)n3)c2c1 [Compound 22b, 2-(Quinoline-2-yl)-1-(2-((tetrahydro-2H-pyran-4-yl)amino)pyrimidin-4-yl)-1H-benzo[d]imidazole-6-ol]",–
–,> 100,–,"Oc1ccc2nc(-c3ccc4ccccc4n3)n(-c3ccnc(NC4CCCCC4)n3)c2c1 [Compound 23b, 3-(2-(cyclohexylamino)pyrimidin-4-yl)-2-(Quinoline-2-yl)-3H-benz[d]imidazole-5-ol]",–
